Laboratory results published in ChEMBL document CHEMBL3797052 (Eur J Med Chem, 2016).

Test system: SN12C
Assay: Antiproliferative activity against human SN12C cells assessed as growth inhibition after 48 hrs by sulforhodamine B assay
Assay type: functional
Settings: not given
In the case of CNC(=O)c1cc(Oc2ccc3nc(NC(=O)Nc4ccc(Cl)c(C(F)(F)F)c4)sc3c2)ccn1, the GI50 is reported as 2.44 µM and the TGI is reported as > 100 µM.

Same assay, conditions: read-out: LC50 (the source's name)
In the case of CNC(=O)c1cc(Oc2ccc3nc(NC(=O)Nc4ccc(Cl)c(C(F)(F)F)c4)sc3c2)ccn1, the CC50 is reported as > 100 µM.

Test system: not listed separately
Assay: Antiproliferative activity against human RXF393 cells assessed as growth inhibition after 48 hrs by sulforhodamine B assay
Assay type: functional
Settings: RXF 393, 48 h
CNC(=O)c1cc(Oc2ccc3nc(NC(=O)Nc4ccc(Cl)c(C(F)(F)F)c4)sc3c2)ccn1 gave a GI50 of 1.93 µM and a TGI of 4.57 µM.

Same assay, conditions: RXF 393, 48 h, read-out: LC50 (the source's name)
In the case of CNC(=O)c1cc(Oc2ccc3nc(NC(=O)Nc4ccc(Cl)c(C(F)(F)F)c4)sc3c2)ccn1, the CC50 is reported as 13.9 µM.

Test system: not listed separately
Assay: Antiproliferative activity against human SKOV3 cells assessed as growth inhibition after 48 hrs by sulforhodamine B assay
Assay type: functional
Settings: SK-OV-3, 48 h
With CNC(=O)c1cc(Oc2ccc3nc(NC(=O)Nc4ccc(Cl)c(C(F)(F)F)c4)sc3c2)ccn1 the GI50 was 1.89 µM and the TGI was 4.21 µM.

Same assay, conditions: SK-OV-3, 48 h, read-out: LC50 (the source's name)
Compound CNC(=O)c1cc(Oc2ccc3nc(NC(=O)Nc4ccc(Cl)c(C(F)(F)F)c4)sc3c2)ccn1 has a CC50 of 9.39 µM.

Test system: not listed separately
Assay: Antiproliferative activity against human OVCAR8 cells assessed as growth inhibition after 48 hrs by sulforhodamine B assay
Assay type: functional
Settings: OVCAR-8, 48 h
In the case of CNC(=O)c1cc(Oc2ccc3nc(NC(=O)Nc4ccc(Cl)c(C(F)(F)F)c4)sc3c2)ccn1, the GI50 is reported as 2.34 µM, the LC50 is reported as > 100 µM and the TGI is reported as 5.25 µM.

Test system: not listed separately
Assay: Antiproliferative activity against human RPMI8226 cells assessed as cell growth at 10^-7 M after 48 hrs by sulforhodamine B assay
Assay type: functional
Settings: RPMI-8226, 48 h, read-out: Activity
With CNC(=O)c1cc(Oc2ccc3nc(NC(=O)Nc4ccc(Cl)c(C(F)(F)F)c4)sc3c2)ccn1 the growth at 0.1 µM was 101%.

Test system: NCI-H226
Assay: Antiproliferative activity against human NCI-H226 cells assessed as cell growth at 10^-7 M after 48 hrs by sulforhodamine B assay
Assay type: functional
Settings: NCI-H226, 48 h, read-out: Activity
CNC(=O)c1cc(Oc2ccc3nc(NC(=O)Nc4ccc(Cl)c(C(F)(F)F)c4)sc3c2)ccn1 showed a growth at 0.1 µM of 99%.

Test system: SK-MEL-28
Assay: Antiproliferative activity against human SK-MEL-28 cells assessed as growth inhibition after 48 hrs by sulforhodamine B assay
Assay type: functional
Settings: SK-MEL-28, 48 h
With CNC(=O)c1cc(Oc2ccc3nc(NC(=O)Nc4ccc(Cl)c(C(F)(F)F)c4)sc3c2)ccn1 the GI50 was 1.56 µM.

Test system: MDA-MB-435
Assay: Antiproliferative activity against human MDA-MB-435 cells assessed as growth inhibition after 48 hrs by sulforhodamine B assay
Assay type: functional
Settings: MDA-MB-435, 48 h
CNC(=O)c1cc(Oc2ccc3nc(NC(=O)Nc4ccc(Cl)c(C(F)(F)F)c4)sc3c2)ccn1 gave a GI50 of 1.9 µM.

Same assay, conditions: MDA-MB-435, 48 h, read-out: LC50 (the source's name)
For CNC(=O)c1cc(Oc2ccc3nc(NC(=O)Nc4ccc(Cl)c(C(F)(F)F)c4)sc3c2)ccn1, the CC50 was > 100 µM.

Test system: SK-MEL-5
Assay: Antiproliferative activity against human SK-MEL-5 cells assessed as cell growth at 10^-7 M after 48 hrs by sulforhodamine B assay
Assay type: functional
Settings: SK-MEL-5, 48 h, read-out: Activity
CNC(=O)c1cc(Oc2ccc3nc(NC(=O)Nc4ccc(Cl)c(C(F)(F)F)c4)sc3c2)ccn1 gave a growth at 0.1 µM of 95%.

Test system: 786-0
Assay: Antiproliferative activity against human 786-0 cells assessed as cell growth at 10^-7 M after 48 hrs by sulforhodamine B assay
Assay type: functional
Settings: 786-0, 48 h, read-out: Activity
CNC(=O)c1cc(Oc2ccc3nc(NC(=O)Nc4ccc(Cl)c(C(F)(F)F)c4)sc3c2)ccn1 gave a growth at 0.1 µM of 101%.

Test system: SN12C
Assay: Antiproliferative activity against human SN12C cells assessed as cell growth at 10^-7 M after 48 hrs by sulforhodamine B assay
Assay type: functional
Settings: read-out: Activity
CNC(=O)c1cc(Oc2ccc3nc(NC(=O)Nc4ccc(Cl)c(C(F)(F)F)c4)sc3c2)ccn1 showed a growth at 0.1 µM of 93%.

Test system: not listed separately
Assay: Antiproliferative activity against human DU145 cells assessed as cell growth at 10^-7 M after 48 hrs by sulforhodamine B assay
Assay type: functional
Settings: DU-145, 48 h, read-out: Activity
CNC(=O)c1cc(Oc2ccc3nc(NC(=O)Nc4ccc(Cl)c(C(F)(F)F)c4)sc3c2)ccn1 gave a growth at 0.1 µM of 109%.

Test system: not listed separately
Assay: Antiproliferative activity against human Hs 578T cells assessed as cell growth at 10^-7 M after 48 hrs by sulforhodamine B assay
Assay type: functional
Settings: read-out: Activity
For CNC(=O)c1cc(Oc2ccc3nc(NC(=O)Nc4ccc(Cl)c(C(F)(F)F)c4)sc3c2)ccn1, the growth at 0.1 µM was 89%.

Test system: KM12
Assay: Antiproliferative activity against human KM12 cells assessed as growth inhibition after 48 hrs by sulforhodamine B assay
Assay type: functional
Settings: KM12, 48 h
With CNC(=O)c1cc(Oc2ccc3nc(NC(=O)Nc4ccc(Cl)c(C(F)(F)F)c4)sc3c2)ccn1 the GI50 was 3.41 µM, the LC50 was > 100 µM and the TGI was > 100 µM.

Test system: not listed separately
Assay: Antiproliferative activity against human HCT116 cells assessed as growth inhibition after 48 hrs by sulforhodamine B assay
Assay type: functional
Settings: HCT-116, 48 h
In the case of CNC(=O)c1cc(Oc2ccc3nc(NC(=O)Nc4ccc(Cl)c(C(F)(F)F)c4)sc3c2)ccn1, the GI50 is reported as 1.89 µM, the LC50 (concentration killing 50% of the starting cells) is reported as > 100 µM and the TGI is reported as 5.39 µM.

Test system: not listed separately
Assay: Antiproliferative activity against human HOP62 cells assessed as growth inhibition after 48 hrs by sulforhodamine B assay
Assay type: functional
Settings: HOP-62, 48 h
In the case of CNC(=O)c1cc(Oc2ccc3nc(NC(=O)Nc4ccc(Cl)c(C(F)(F)F)c4)sc3c2)ccn1, the GI50 is reported as 1.94 µM, the LC50 is reported as > 100 µM and the TGI is reported as 4.74 µM.

Test system: not listed separately
Assay: Antiproliferative activity against human Hs 578T cells assessed as growth inhibition after 48 hrs by sulforhodamine B assay
Assay type: functional
Settings: not given
CNC(=O)c1cc(Oc2ccc3nc(NC(=O)Nc4ccc(Cl)c(C(F)(F)F)c4)sc3c2)ccn1 showed a GI50 of 1.53 µM and a TGI of 6.27 µM.

Same assay, conditions: read-out: LC50 (the source's name)
In the case of CNC(=O)c1cc(Oc2ccc3nc(NC(=O)Nc4ccc(Cl)c(C(F)(F)F)c4)sc3c2)ccn1, the CC50 is reported as > 100 µM.

Test system: MDA-MB-468
Assay: Antiproliferative activity against human MDA-MB-468 cells assessed as growth inhibition after 48 hrs by sulforhodamine B assay
Assay type: functional
Settings: MDA-MB-468, 48 h
Work on CNC(=O)c1cc(Oc2ccc3nc(NC(=O)Nc4ccc(Cl)c(C(F)(F)F)c4)sc3c2)ccn1 yielded a GI50 of 1.36 µM and a TGI of 4.1 µM.

Same assay, conditions: MDA-MB-468, 48 h, read-out: LC50 (the source's name)
With CNC(=O)c1cc(Oc2ccc3nc(NC(=O)Nc4ccc(Cl)c(C(F)(F)F)c4)sc3c2)ccn1 the CC50 was > 100 µM.

Molecular target: RAF proto-oncogene serine/threonine-protein kinase (Homo sapiens, UniProt P04049)
Sequence (P04049 whole entry): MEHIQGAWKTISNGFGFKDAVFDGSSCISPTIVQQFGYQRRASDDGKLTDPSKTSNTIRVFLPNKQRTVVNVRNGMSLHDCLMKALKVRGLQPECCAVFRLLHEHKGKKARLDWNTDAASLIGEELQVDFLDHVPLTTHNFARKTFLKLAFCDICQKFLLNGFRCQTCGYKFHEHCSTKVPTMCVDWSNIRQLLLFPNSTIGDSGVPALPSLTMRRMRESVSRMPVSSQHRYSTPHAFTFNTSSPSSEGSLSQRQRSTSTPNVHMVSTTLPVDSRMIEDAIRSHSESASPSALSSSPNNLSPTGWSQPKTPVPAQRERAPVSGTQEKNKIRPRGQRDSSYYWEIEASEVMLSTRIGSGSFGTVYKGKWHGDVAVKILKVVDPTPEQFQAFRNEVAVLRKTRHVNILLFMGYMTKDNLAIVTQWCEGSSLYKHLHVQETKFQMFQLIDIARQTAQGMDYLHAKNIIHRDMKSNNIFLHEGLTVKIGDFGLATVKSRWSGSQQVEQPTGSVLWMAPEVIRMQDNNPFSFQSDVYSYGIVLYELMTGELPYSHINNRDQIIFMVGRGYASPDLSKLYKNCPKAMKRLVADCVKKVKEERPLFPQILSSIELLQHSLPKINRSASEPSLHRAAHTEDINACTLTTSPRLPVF
Assay: Inhibition of human CRAF at 10 uM measured after 40 mins by scintillation counting
Settings: not given
Work on CNC(=O)c1cc(Oc2ccc3nc(NC(=O)Nc4ccc(Cl)c(C(F)(F)F)c4)sc3c2)ccn1 yielded an inhibition of 94.8%.

Molecular target: CYP2C9 (Homo sapiens, UniProt P11712)
Sequence (P11712 whole entry): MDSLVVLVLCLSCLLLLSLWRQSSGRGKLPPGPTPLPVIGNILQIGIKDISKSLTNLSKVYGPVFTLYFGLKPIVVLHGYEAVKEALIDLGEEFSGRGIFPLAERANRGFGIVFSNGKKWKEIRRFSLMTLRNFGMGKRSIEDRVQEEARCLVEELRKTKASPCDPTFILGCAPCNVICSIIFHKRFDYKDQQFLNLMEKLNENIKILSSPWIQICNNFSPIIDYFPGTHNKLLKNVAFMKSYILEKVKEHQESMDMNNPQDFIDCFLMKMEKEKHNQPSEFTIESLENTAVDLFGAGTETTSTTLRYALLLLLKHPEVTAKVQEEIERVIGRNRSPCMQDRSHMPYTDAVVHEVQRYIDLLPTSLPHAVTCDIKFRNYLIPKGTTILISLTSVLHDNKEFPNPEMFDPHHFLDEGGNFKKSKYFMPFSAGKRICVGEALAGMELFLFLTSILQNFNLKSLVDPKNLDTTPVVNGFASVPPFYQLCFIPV
Assay: Inhibition of recombinant human CYP2C9 assessed as remaining enzyme activity using CYP2C9 green as substrate at 10 uM after 5 mins in presence of NADP by fluorescence plate reader analysis
Assay type: ADME
Settings: recombinant human CYP2C9, probe CYP2C9 green, read-out: Activity
With CNC(=O)c1cc(Oc2ccc3nc(NC(=O)Nc4ccc(Cl)c(C(F)(F)F)c4)sc3c2)ccn1 the activity at 5 min, 10 µM was 98.5%.

Molecular target: hERG (KCNH2) (Homo sapiens, UniProt Q12809)
Sequence (Q12809 whole entry): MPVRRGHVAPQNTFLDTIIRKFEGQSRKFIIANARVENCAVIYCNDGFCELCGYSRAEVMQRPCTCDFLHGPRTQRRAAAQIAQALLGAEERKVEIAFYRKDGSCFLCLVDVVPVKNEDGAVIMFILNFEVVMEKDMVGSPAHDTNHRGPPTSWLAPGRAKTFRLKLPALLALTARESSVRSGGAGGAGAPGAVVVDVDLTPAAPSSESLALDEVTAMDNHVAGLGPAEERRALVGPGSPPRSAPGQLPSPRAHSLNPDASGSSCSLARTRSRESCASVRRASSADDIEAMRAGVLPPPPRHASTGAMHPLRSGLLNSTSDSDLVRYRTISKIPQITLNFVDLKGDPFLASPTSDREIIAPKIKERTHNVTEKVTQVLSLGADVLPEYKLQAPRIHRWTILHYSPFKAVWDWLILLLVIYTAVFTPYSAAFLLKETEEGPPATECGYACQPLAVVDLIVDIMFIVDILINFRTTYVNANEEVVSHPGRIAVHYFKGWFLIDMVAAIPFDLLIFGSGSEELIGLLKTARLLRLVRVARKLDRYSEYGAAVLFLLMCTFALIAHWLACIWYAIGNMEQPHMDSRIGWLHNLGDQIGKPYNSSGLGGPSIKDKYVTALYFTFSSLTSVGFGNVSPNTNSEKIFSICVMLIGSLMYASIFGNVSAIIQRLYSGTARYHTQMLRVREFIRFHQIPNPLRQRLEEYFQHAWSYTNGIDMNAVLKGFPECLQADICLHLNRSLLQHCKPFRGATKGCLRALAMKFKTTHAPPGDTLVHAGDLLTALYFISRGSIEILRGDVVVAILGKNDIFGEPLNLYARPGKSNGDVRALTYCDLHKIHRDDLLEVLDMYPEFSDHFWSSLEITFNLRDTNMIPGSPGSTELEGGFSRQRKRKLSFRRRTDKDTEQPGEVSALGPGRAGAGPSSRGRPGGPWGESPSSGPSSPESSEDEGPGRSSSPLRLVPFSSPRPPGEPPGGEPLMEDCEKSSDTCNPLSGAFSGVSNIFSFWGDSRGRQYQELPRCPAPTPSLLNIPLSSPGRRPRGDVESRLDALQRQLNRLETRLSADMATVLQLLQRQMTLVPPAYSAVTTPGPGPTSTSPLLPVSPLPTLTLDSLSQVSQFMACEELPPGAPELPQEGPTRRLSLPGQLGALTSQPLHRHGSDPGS
Assay: Inhibition of human ERG assessed as reduction in channel current at 100 uM by automated patch-clamp electrophysiology assay
Settings: not given
In the case of CNC(=O)c1cc(Oc2ccc3nc(NC(=O)Nc4ccc(Cl)c(C(F)(F)F)c4)sc3c2)ccn1, the inhibition at 100 µM is reported as 26.2%.

Test system: SR
Assay: Antiproliferative activity against human SR cells assessed as cell growth at 10^-8 M after 48 hrs by sulforhodamine B assay
Assay type: functional
Settings: read-out: Activity
Compound CNC(=O)c1cc(Oc2ccc3nc(NC(=O)Nc4ccc(Cl)c(C(F)(F)F)c4)sc3c2)ccn1 has a growth at 0.01 µM of 110%.

Test system: not listed separately
Assay: Antiproliferative activity against human SF268 cells assessed as cell growth at 10^-8 M after 48 hrs by sulforhodamine B assay
Assay type: functional
Settings: SF-268, 48 h, read-out: Activity
In the case of CNC(=O)c1cc(Oc2ccc3nc(NC(=O)Nc4ccc(Cl)c(C(F)(F)F)c4)sc3c2)ccn1, the growth at 0.01 µM is reported as 107%.

Test system: Malme-3M
Assay: Antiproliferative activity against human MALME-3M cells assessed as cell growth at 10^-8 M after 48 hrs by sulforhodamine B assay
Assay type: functional
Settings: read-out: Activity
CNC(=O)c1cc(Oc2ccc3nc(NC(=O)Nc4ccc(Cl)c(C(F)(F)F)c4)sc3c2)ccn1 gave a growth at 0.01 µM of 104%.

Test system: M14
Assay: Antiproliferative activity against human M14 cells assessed as cell growth at 10^-8 M after 48 hrs by sulforhodamine B assay
Assay type: functional
Settings: M14, 48 h, read-out: Activity
CNC(=O)c1cc(Oc2ccc3nc(NC(=O)Nc4ccc(Cl)c(C(F)(F)F)c4)sc3c2)ccn1 showed a growth at 0.01 µM of 90%.

Test system: CCRF-CEM
Assay: Antiproliferative activity against human CCRF-CEM cells assessed as cell growth at 10^-6 M after 48 hrs by sulforhodamine B assay
Assay type: functional
Settings: read-out: Activity
CNC(=O)c1cc(Oc2ccc3nc(NC(=O)Nc4ccc(Cl)c(C(F)(F)F)c4)sc3c2)ccn1 showed a growth at 1 µM of 73%.

Test system: not listed separately
Assay: Antiproliferative activity against human MOLT4 cells assessed as cell growth at 10^-6 M after 48 hrs by sulforhodamine B assay
Assay type: functional
Settings: MOLT-4, 48 h, read-out: Activity
For CNC(=O)c1cc(Oc2ccc3nc(NC(=O)Nc4ccc(Cl)c(C(F)(F)F)c4)sc3c2)ccn1, the growth at 1 µM was 95%.

Test system: not listed separately
Assay: Antiproliferative activity against human HCT15 cells assessed as cell growth at 10^-6 M after 48 hrs by sulforhodamine B assay
Assay type: functional
Settings: HCT-15, 48 h, read-out: Activity
With CNC(=O)c1cc(Oc2ccc3nc(NC(=O)Nc4ccc(Cl)c(C(F)(F)F)c4)sc3c2)ccn1 the growth at 1 µM was 74%.

Test system: not listed separately
Assay: Antiproliferative activity against human SF295 cells assessed as cell growth at 10^-6 M after 48 hrs by sulforhodamine B assay
Assay type: functional
Settings: SF-295, 48 h, read-out: Activity
Work on CNC(=O)c1cc(Oc2ccc3nc(NC(=O)Nc4ccc(Cl)c(C(F)(F)F)c4)sc3c2)ccn1 yielded a growth at 1 µM of 90%.

Test system: not listed separately
Assay: Antiproliferative activity against human SNB75 cells assessed as cell growth at 10^-6 M after 48 hrs by sulforhodamine B assay
Assay type: functional
Settings: SNB-75, 48 h, read-out: Activity
With CNC(=O)c1cc(Oc2ccc3nc(NC(=O)Nc4ccc(Cl)c(C(F)(F)F)c4)sc3c2)ccn1 the growth at 1 µM was 78%.

Test system: KM12
Assay: Antiproliferative activity against human KM12 cells assessed as cell growth at 10^-4 M after 48 hrs by sulforhodamine B assay
Assay type: functional
Settings: KM12, 48 h, read-out: Activity
For CNC(=O)c1cc(Oc2ccc3nc(NC(=O)Nc4ccc(Cl)c(C(F)(F)F)c4)sc3c2)ccn1, the growth at 100 µM was 45%.

Test system: not listed separately
Assay: Antiproliferative activity against human SF268 cells assessed as cell growth at 10^-4 M after 48 hrs by sulforhodamine B assay
Assay type: functional
Settings: SF-268, 48 h, read-out: Activity
Work on CNC(=O)c1cc(Oc2ccc3nc(NC(=O)Nc4ccc(Cl)c(C(F)(F)F)c4)sc3c2)ccn1 yielded a growth at 100 µM of -5%.

Test system: not listed separately
Assay: Antiproliferative activity against human SNB75 cells assessed as cell growth at 10^-4 M after 48 hrs by sulforhodamine B assay
Assay type: functional
Settings: SNB-75, 48 h, read-out: Activity
Compound CNC(=O)c1cc(Oc2ccc3nc(NC(=O)Nc4ccc(Cl)c(C(F)(F)F)c4)sc3c2)ccn1 has a growth at 100 µM of -80%.

Test system: not listed separately
Assay: Antiproliferative activity against human Caki1 cells assessed as cell growth at 10^-6 M after 48 hrs by sulforhodamine B assay
Assay type: functional
Settings: CAKI-1, 48 h, read-out: Activity
CNC(=O)c1cc(Oc2ccc3nc(NC(=O)Nc4ccc(Cl)c(C(F)(F)F)c4)sc3c2)ccn1 gave a growth at 1 µM of 95%.

Test system: MDA-MB-435
Assay: Antiproliferative activity against human MDA-MB-435 cells assessed as cell growth at 10^-4 M after 48 hrs by sulforhodamine B assay
Assay type: functional
Settings: MDA-MB-435, 48 h, read-out: Activity
CNC(=O)c1cc(Oc2ccc3nc(NC(=O)Nc4ccc(Cl)c(C(F)(F)F)c4)sc3c2)ccn1 gave a growth at 100 µM of 40%.
